# According to patent publication US8273378B2, “Dialysis solutions containing pyrophosphates” (Baxter International, Inc., priority 2007, dated 2012):
# Read-outs that look alike come from different tables or passages of the source.
# Conditions: for stability of pyrophosphate on storage: 1 week at 40° C.; for stability of pyrophosphate on storage / loss of pyrophosphate during sterilization: all buffers; for change in the pH of the solutions: after sterilization and after storage for a week at 40° C.; for loss of pyrophosphate during sterilization: pH 6 and lower; for Recoveries: unsterilized
# Method: Introduction: This study was designed to evaluate the stability of pyrophosphate salts with different buffers over a pH range from 4 to 10 during steam sterilization and after storage at 40° C. Two pyrophosphate salts and four buffers were obtained for the study. TRIS was added to all solutions as a pH stabilizer. Two of the solutions were also prepared without TRIS for comparison. The pH of the solutions was adjusted from pH 4-10 with 1N HCl or 1N NaOH. The solutions were sterilized at 121° C. for 40 minutes. Pyrophosphate concentration was determined before and after sterilization and after storage. The pH was also determined after sterilization and after storage.
# The salts tested were: • 1. Disodium Pyrophosphate (Na2H2P2O7) • 2. Tetrapotassium Pyrophosphate (K4P2O7)
# The study was performed using the sodium and potassium salts of pyrophosphate with the buffers shown below. Solutions were not prepared with bicarbonate below pH 7 because bicarbonate will decompose at a lower pH. • 1. Sodium Lactate • 2. Sodium Bicarbonate • 3. Sodium Citrate • 4. Sodium Pyruvate
# The concentrations of the solution components are shown below in Table 2.
SMILES,stability of pyrophosphate on storage (pH 7-10),"stability of pyrophosphate on storage (pH 7-10, except lactate without TRIS at pH 7)",change in the pH of the solutions,loss of pyrophosphate during sterilization,change in pH after sterilization (all solutions),"pH change after storage (storage for up to two months at 40° C., all solutions)",Recoveries (all buffers at pH 6 and higher) [%],"Recoveries (buffers other than citrate, pH 4 and 5)",stability during sterilization (with bicarbonate at pH 9-10),stability during sterilization (pH 9),pH change after storage (storage for 1 week)
O=P([O-])([O-])OP(=O)(O)O.[Na+].[Na+] [Disodium Pyrophosphate],remained unchanged,stable,no change in the pH,substantial loss of pyrophosphate,no change in pH,less than 0.1 pH unit,≥ 95,90-102%,most stable,–,–
O=P([O-])([O-])OP(=O)([O-])[O-].[K+].[K+].[K+].[K+] [Tetrapotassium Pyrophosphate],–,–,no change in the pH,substantial loss of pyrophosphate,no change in pH,–,–,–,–,most stable,less than 0.1 pH unit
